The values that follow come from article PMC7889890, “Structure of photosystem I-LHCI-LHCII from the green alga Chlamydomonas reinhardtii in State 2” (Nature Communications, 2021).

One assay addresses T1, PsaA (Chlamydomonas reinhardtii, UniProt P12154).
T1 construct: PSI core subunit within native PSI-LHCI-LHCII supercomplex purified from state 2 thylakoids
The assay is classed as binding. Conditions: Bcr850; native supercomplex.

In the next assay the target is T2, PsaH (Chlamydomonas reinhardtii, UniProt P13352).
T2 construct: mature PSI core subunit within native PSI-LHCI-LHCII supercomplex purified from state 2 thylakoids
T2 sequence (P13352 31-130): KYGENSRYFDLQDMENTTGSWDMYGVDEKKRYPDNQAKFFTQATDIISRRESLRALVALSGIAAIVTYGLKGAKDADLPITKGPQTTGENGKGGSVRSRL
The assay is classed as binding. To be noted: Bcr204; native supercomplex.

The target in another assay is T3, PsaL (Chlamydomonas reinhardtii, UniProt A8IL32).
T3 construct: gene CHLRE_12g486300v5; mature PSI core subunit within native PSI-LHCI-LHCII supercomplex purified from state 2 thylakoids
T3 sequence (A8IL32 36-196): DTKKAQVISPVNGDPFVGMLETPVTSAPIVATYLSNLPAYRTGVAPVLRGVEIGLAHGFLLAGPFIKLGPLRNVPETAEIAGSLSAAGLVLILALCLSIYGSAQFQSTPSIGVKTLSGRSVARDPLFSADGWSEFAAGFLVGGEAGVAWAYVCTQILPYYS
It is filed as binding. To be noted: Bcr201, Bcr205, Bcr206; native supercomplex.

The target of a further assay is T4, PsaD (Chlamydomonas reinhardtii (endogenous …, UniProt Q39615 36-196)).
T4 construct: PSI core subunit PsaD of C. reinhardtii; source: endogenous, C. reinhardtii CC-137 cells in state 2; thylakoid membranes solubilised with α-DDM, PSI-LHCI-LHCII purified (sucrose density gradient, gel filtration)
T4 sequence (looked up): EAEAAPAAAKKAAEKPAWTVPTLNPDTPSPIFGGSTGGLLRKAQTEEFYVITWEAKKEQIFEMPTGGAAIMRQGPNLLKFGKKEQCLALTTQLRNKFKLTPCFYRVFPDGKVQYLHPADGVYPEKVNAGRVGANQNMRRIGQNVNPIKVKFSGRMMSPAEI
Nature of the assay: cryo-EM structure; single-particle cryo-EM of the PSI-LHCI-LHCII supercomplex purified from state 2 cells; 3.42 Å overall; 10 mM Hepes-KOH pH 7.5, 50 mM NaCl, 1 mM NaN3, 10 mM NaF, 0.01% α-DDM. Conditions: both partners purified.

T1 sequence (P12154 whole entry): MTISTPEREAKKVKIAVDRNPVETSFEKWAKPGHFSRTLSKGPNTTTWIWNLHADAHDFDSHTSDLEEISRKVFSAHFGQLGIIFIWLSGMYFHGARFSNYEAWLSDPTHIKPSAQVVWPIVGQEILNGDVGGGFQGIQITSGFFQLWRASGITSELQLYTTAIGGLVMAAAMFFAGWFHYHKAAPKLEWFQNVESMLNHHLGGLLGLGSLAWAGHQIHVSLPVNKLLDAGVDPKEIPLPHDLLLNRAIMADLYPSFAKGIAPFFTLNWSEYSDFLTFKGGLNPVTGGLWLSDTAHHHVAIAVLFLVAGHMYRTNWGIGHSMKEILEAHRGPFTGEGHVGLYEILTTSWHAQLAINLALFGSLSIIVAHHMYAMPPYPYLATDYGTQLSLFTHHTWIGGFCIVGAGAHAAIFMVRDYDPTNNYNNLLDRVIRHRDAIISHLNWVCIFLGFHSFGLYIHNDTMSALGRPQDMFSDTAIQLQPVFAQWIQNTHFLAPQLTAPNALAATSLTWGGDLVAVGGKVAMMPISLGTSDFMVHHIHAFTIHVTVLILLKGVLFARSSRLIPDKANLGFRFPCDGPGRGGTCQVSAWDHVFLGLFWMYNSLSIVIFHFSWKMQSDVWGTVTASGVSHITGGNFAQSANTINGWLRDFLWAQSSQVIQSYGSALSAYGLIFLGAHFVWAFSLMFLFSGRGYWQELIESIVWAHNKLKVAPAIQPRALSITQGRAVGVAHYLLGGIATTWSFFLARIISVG

With `CC1=C(/C=C/C(C)=C/C=C/C(C)=C/C=C/C=C(C)/C=C/C=C(C)/C=C/C2=C(C)CCCC2(C)C)C(C)(C)CCC1` [BCR], the “cryo-EM structure, 3.42 Å” value is “Bcr850 of PsaA interacts with helix A of PsaO” on PsaA; “one BCR (Bcr204) were found to bind to PsaH in the present structure” on PsaH; “three BCRs (Bcr201, Bcr205 and Bcr206) were observed in the green algal PsaL” on PsaL.

B1: PsaH (natural protein, UniProt P13352 31-130, looked up)
chain: T2 sequence (P13352 31-130)
notes: PSI core subunit PsaH of C. reinhardtii; also called Cr-PsaH; source: endogenous, C. reinhardtii CC-137 cells in state 2; thylakoid membranes solubilised with α-DDM, PSI-LHCI-LHCII purified (sucrose density gradient, gel filtration)
As for B1, the binding result with PsaD is given as “binds”.
